Source: patent publication US10294202B2, “Pyrrolidinones as herbicides” (FMC Corporation, priority 2013, dated 2019)

Columns and labels:
ragweed = assay: Test C pre-/postemergence herbicide test; assay type: in vivo, Ambrosia elatior
In short: (§1)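 Response scores range from 0, meaning no effect, to 100, meaning complete control, assigned visually by comparison with controls roughly two weeks (13 to 15 days) after spraying. Applications were made preemergence to seeded loam–sand soil and postemergence to 1- to 4-leaf plants.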

johnsongrass = assay: Test C pre-/postemergence herbicide test; assay type: in vivo, Sorghum halepense
In short: as §1

pigweed = assay: Test A pre-/postemergence herbicide test; assay type: in vivo, Amaranthus retroflexus
In short: (§2)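 Scoring was visual, relative to untreated controls, on a 0–100 scale after about 10 greenhouse days. Preemergence treatment used a directed soil spray over seeded loam/sand; postemergence treatment targeted one- to two-leaf plants of 2–10 cm.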

ryegrass, Italian = assay: Test C pre-/postemergence herbicide test; assay type: in vivo, Lolium multiflorum
In short: as §1

blackgrass = assay: Test C pre-/postemergence herbicide test; assay type: in vivo, Alopecurus myosuroides
In short: as §1

crabgrass, large = assay: Test C pre-/postemergence herbicide test; assay type: in vivo, Digitaria sanguinalis
In short: as §1

wheat = assay: Test A pre-/postemergence herbicide test; assay type: in vivo, Triticum aestivum; conditions: Postemergence
In short: as §2

giant foxtail = assay: Test A pre-/postemergence herbicide test; assay type: in vivo, Setaria faberii
In short: as §2

foxtail, giant = assay: Test C pre-/postemergence herbicide test; assay type: in vivo, Setaria faberii
In short: as §1

nutsedge, yellow = assay: Test C pre-/postemergence herbicide test; assay type: in vivo, Cyperus esculentus
In short: as §1

sedge, umbrella = assay: Test B flooded paddy test; assay type: in vivo, Cyperus difformis; conditions: 500 g ai/ha, Flood; scale of 0 to 100 where 0 is no effect and 100 is complete control
In short: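 Plants were grown to the 2-leaf stage, then pots were flooded to 3 cm above the soil and compound was applied directly into the paddy water, with that depth held throughout. After 13 to 15 days in a greenhouse, injury was rated visually against untreated controls on a 0 to 100 scale (100 = complete control).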

[1] = Postemergence, 31 g ai/ha, scale 0 to 100 (0 no effect, 100 complete control)
[2] = Postemergence, 62 g ai/ha, scale 0 (no effect) to 100 (complete control)
[3] = Postemergence, 125 g ai/ha, scale 0 to 100 (0 no effect, 100 complete control)
[4] = Postemergence, 250 g ai/ha, scale 0 to 100 (0 no effect, 100 complete control)
[5] = Preemergence, 31 g ai/ha, scale 0 to 100, 0 is no effect and 100 is complete control
[6] = Preemergence, 62 g ai/ha, scale 0 to 100 (0 no effect, 100 complete control)
[7] = Preemergence, 125 g ai/ha, scale 0 to 100 (0 no effect, 100 complete control)
[8] = Postemergence, 125 g ai/ha, visual rating on 0 to 100 scale (0 no effect, 100 complete control), approx. 10 days
[9] = Postemergence, 500 g ai/ha, 0 to 100 scale (0 no effect, 100 complete control)
[10] = Preemergence, 125 g ai/ha, 0 to 100 scale where 0 is no effect and 100 is complete control
[11] = Preemergence, 500 g ai/ha, visual rating on 0 to 100 scale (0 no effect, 100 complete control)

With CN1CC(c2ccc(F)c(F)c2)C(C(=O)Nc2cccc(F)c2F)C1=O (stereo not drawn) [Compound 303] as the molecule, how does the “Plant response rating, Ragweed” value (ragweed; [1]) read?
The value was 0.

What about the “Plant response rating, Ragweed” value (ragweed; [2]) of the same molecule?
The value was 0.

And the “Plant response rating, Ragweed” value (ragweed; [3])?
Its value is 40.

What about the “Plant response rating, Ragweed” value (ragweed; [4]) of the same molecule?
The value was 55.

What about the “Ragweed plant response rating” value (ragweed; [5]) of the same molecule?
The value was 5.

And the “Ragweed plant response rating” value (ragweed; [6])?
Its value is 70.

What about the “Plant response rating, Ragweed” value (ragweed; [7]) of the same molecule?
The value was 75.

What about the “Plant response rating (scale of 0 to 100), Ragweed” value (ragweed; Preemergence, 250 g ai/ha) of the same molecule?
The value was 80.

And the “Plant response rating, Johnsongrass” value (johnsongrass; [1])?
Its value is 0.

And the “Plant response rating, Johnsongrass” value (johnsongrass; [2])?
Its value is 0.

What about the “Plant response rating, Johnsongrass” value (johnsongrass; [3]) of the same molecule?
Its value is 0.

And the “Plant response rating, Johnsongrass” value (johnsongrass; [4])?
Its value is 5.

What about the “Johnsongrass plant response rating” value (johnsongrass; [5]) of the same molecule?
The value was 0.

What about the “Johnsongrass plant response rating” value (johnsongrass; [6]) of the same molecule?
The value was 55.

What about the “Plant response rating, Johnsongrass” value (johnsongrass; [7]) of the same molecule?
The value was 65.

And the “Plant response rating (scale of 0 to 100), Johnsongrass” value (johnsongrass; Preemergence, 250 g ai/ha)?
The value was 80.

And the “Plant response rating, Pigweed” value (pigweed; [8])?
The value was 40.

What about the “Plant response rating, Pigweed” value (pigweed; [9]) of the same molecule?
Its value is 60.

And the “Plant response rating, Pigweed” value (pigweed; [10])?
The value was 20.

And the “Pigweed plant response rating” value (pigweed; [11])?
Its value is 50.

What about the “Plant response rating, Ryegrass, Italian” value (ryegrass, Italian; [1]) of the same molecule?
Its value is 0.

What about the “Plant response rating, Ryegrass, Italian” value (ryegrass, Italian; [2]) of the same molecule?
Its value is 0.

What about the “Plant response rating, Ryegrass, Italian” value (ryegrass, Italian; [3]) of the same molecule?
The value was 0.

And the “Plant response rating, Ryegrass, Italian” value (ryegrass, Italian; [4])?
The value was 5.

And the “Ryegrass, Italian plant response rating” value (ryegrass, Italian; [5])?
The value was 30.

And the “Ryegrass, Italian plant response rating” value (ryegrass, Italian; [6])?
Its value is 35.

And the “Plant response rating, Ryegrass, Italian” value (ryegrass, Italian; [7])?
The value was 70.

What about the “Plant response rating (scale of 0 to 100), Ryegrass, Italian” value (ryegrass, Italian; Preemergence, 250 g ai/ha) of the same molecule?
Its value is 75.

And the “Plant response rating, Blackgrass” value (blackgrass; [1])?
Its value is 0.

And the “Plant response rating, Blackgrass” value (blackgrass; [2])?
Its value is 0.

What about the “Plant response rating, Blackgrass” value (blackgrass; [3]) of the same molecule?
Its value is 0.

And the “Plant response rating, Blackgrass” value (blackgrass; [4])?
The value was 0.

What about the “Blackgrass plant response rating” value (blackgrass; [5]) of the same molecule?
The value was 0.

What about the “Blackgrass plant response rating” value (blackgrass; [6]) of the same molecule?
Its value is 40.

And the “Plant response rating, Blackgrass” value (blackgrass; [7])?
Its value is 80.

And the “Plant response rating (scale of 0 to 100), Blackgrass” value (blackgrass; Preemergence, 250 g ai/ha)?
Its value is 90.

What about the “Plant response rating, Crabgrass, Large” value (crabgrass, large; [1]) of the same molecule?
Its value is 0.

And the “Plant response rating, Crabgrass, Large” value (crabgrass, large; [2])?
Its value is 40.

And the “Plant response rating, Crabgrass, Large” value (crabgrass, large; [3])?
Its value is 65.

And the “Plant response rating, Crabgrass, Large” value (crabgrass, large; [4])?
Its value is 90.

And the “Crabgrass, Large plant response rating” value (crabgrass, large; [5])?
The value was 95.

What about the “Crabgrass, Large plant response rating” value (crabgrass, large; [6]) of the same molecule?
Its value is 98.

What about the “Plant response rating, Crabgrass, Large” value (crabgrass, large; [7]) of the same molecule?
The value was 98.

And the “Plant response rating (scale of 0 to 100), Crabgrass, Large” value (crabgrass, large; Preemergence, 250 g ai/ha)?
Its value is 100.

What about the “Plant response rating, Wheat” value (wheat; 125 g ai/ha, visual rating on 0 to 100 scale (0 no effect, 100 complete control), approx. 10 days) of the same molecule?
The value was 50.

What about the “Plant response rating, Wheat” value (wheat; 500 g ai/ha, 0 to 100 scale (0 no effect, 100 complete control)) of the same molecule?
Its value is 60.

What about the “Plant response rating, Foxtail, Giant” value (giant foxtail; [8]) of the same molecule?
The value was 80.

What about the “Plant response rating, Foxtail, Giant” value (giant foxtail; [9]) of the same molecule?
The value was 80.

And the “Plant response rating, Foxtail, Giant” value (giant foxtail; [10])?
The value was 90.

And the “Foxtail, Giant plant response rating” value (giant foxtail; [11])?
The value was 90.

And the “Plant response rating, Foxtail, Giant” value (foxtail, giant; [2])?
The value was 80.

What about the “Plant response rating, Foxtail, Giant” value (foxtail, giant; [3]) of the same molecule?
The value was 85.

What about the “Plant response rating, Foxtail, Giant” value (foxtail, giant; [4]) of the same molecule?
The value was 90.

What about the “Foxtail, Giant plant response rating” value (foxtail, giant; [5]) of the same molecule?
Its value is 90.

And the “Foxtail, Giant plant response rating” value (foxtail, giant; [6])?
Its value is 95.

What about the “Plant response rating, Foxtail, Giant” value (foxtail, giant; [7]) of the same molecule?
Its value is 98.

And the “Plant response rating (scale of 0 to 100), Foxtail, Giant” value (foxtail, giant; Preemergence, 250 g ai/ha)?
Its value is 100.

What about the “Plant response rating, Nutsedge, Yellow” value (nutsedge, yellow; [1]) of the same molecule?
Its value is 0.

And the “Plant response rating, Nutsedge, Yellow” value (nutsedge, yellow; [2])?
The value was 0.

And the “Plant response rating, Nutsedge, Yellow” value (nutsedge, yellow; [3])?
The value was 0.

And the “Plant response rating, Nutsedge, Yellow” value (nutsedge, yellow; [4])?
The value was 0.

And the “Nutsedge, Yellow plant response rating” value (nutsedge, yellow; [5])?
Its value is 0.

And the “Nutsedge, Yellow plant response rating” value (nutsedge, yellow; [6])?
Its value is 0.

And the “Plant response rating, Nutsedge, Yellow” value (nutsedge, yellow; [7])?
Its value is 0.

And the “Plant response rating (scale of 0 to 100), Nutsedge, Yellow” value (nutsedge, yellow; Preemergence, 250 g ai/ha)?
The value was 25.

What about the “Plant response rating, Sedge, Umbrella” value (sedge, umbrella) of the same molecule?
The value was 0.
